Patent publication US5703056A, “Non-invasive imaging of gene transfer” (priority 1995, dated 1997)
In brackets after ≈: the same amount, converted by molar mass. Like-named read-outs stand apart in the source and are kept apart here.

Legend:
[1] = target: T1, HSV1-TK (Human alphaherpesvirus 1 strain 17, UniProt P0DTH5); assay: Single 120 minute paired accumulation of FIAU and IUdR by RG2TK+ and RG2 cells; assay type: cell-based, herpes simplex virus; details: Data from FIG. 6A
Protocol: The processing of cells and incubation medium was the same as that described above. A portion of the harvested cells was also processed for acid-insoluble (10% TCA) radioactivity. Decay corrected ^123 I-radioactivity was measured in a Packard AutoGamma 5550 Spectrometer. Samples were stored for 1 week to allow for ^123 I decay (12 half lives), and recounted afterwards in the Packard B1600 TriCarb beta spectrometer to determine ^3 H- and ^14 C-radioactivity.
All radioactivity measurements were expressed as a percent of administered dose per gram of tissue or per unit volume of fluid as described above.
(§1) Data analysis. […] These two related measures are useful to evaluate the intensity of the images (e.g., high "sensitivity") and the ability to differentiate between HSV1-TK and endogenous-TK in the images (e.g., high "selectivity"). The "selectivity" measure is not interpreted as a relative sensitivity (i.e., a value of 1 indicating equal sensitivity) of the substrate to HSV1-TK vs. endogenous-TK. […] They are intended for the direct comparison of substrates only.

[2] = Calculated permeability surface area product (PS) of the cerebral capillaries; set-up: unit not given here
Source text: Passage of the nucleosides across the blood brain barrier (BBB) is an important factor to consider in the design of radiolabelled 2'-fluoro-nucleoside analogues for imaging HSV1-TK expression in the brain. […] It is known that brain capillary permeability for many compounds is related to their octanol/water partition coefficient (P) and molecular weight. [Levin, V. N. J. Med. Chem., 23: 682-4, 1980] Several authors have described a relationship between the brain capillary permeability and log P or log P·Dm, where Dm is a measure of diffusibility. […] [Dischino, D. D., Welch, M. J., Kilbourn, M. N., and Raichle, M. E., J. Nucl. Med., 24: 1030-8, 1983] […] Fenstermacher, J. D. Drug transfer across the blood brain barrier. In: Topics in Pharmaceutical Sciences. Ed.: Breimer, D. D., and Speiser, P. Amsterdam: Elsevier, pp. 143-54, 1983; Fenstermacher, J. D., and Rapoport, S. I. In: Handbook of Physiology. The Cardiovascular System. Microcirculation. Bethesda, Md.: Am. Physiol. Soc., sect. 2, Vol. IV, pt. 2, chapt. 21, p. 969-1000, 1984; Fenstermacher, J. D. In: Implications of Blood-Brain Barrier and Its Manipulation. Basic Science Aspects. Ed. by Neuwelt, E., New York: Plenum, Vol. 1, Chapt. 6, pp. 132-55, 1988]

[3] = target: T1, HSV1-TK; assay: Accumulation of radiolabelled marker substrates in RG2TK+ transduced and RG2 wild-type cells, normalized to TdR; assay type: cell-based, herpes simplex virus; details: for Selectivity+ Sensitivity*/(substrate/TdR) for RG2 / Sensitivity* Δ(substrate/TdR)/Δ(HSV1TK mRNA/S28 RNA IOD): Data from FIG. 5; for accumulation in bulk RG2TK+ cells relative to wild-type RG2 cells: normalized to TdR, FIGS. 4 and 5B
Protocol: Source of radiolabelled "marker substrates". […] No carrier-added 5-[^123 I]-deoxyuridine (IUdR) was prepared by reacting 2-deoxyuridine (UdR) with carrier-free ^123 I-labelled sodium iodide in an iodogen coated reaction vial.
Comparison of "marker substrates" for identifying HSV1-tk gene expression in tissue culture. […] Each of these substrates were developed for or used as an anti-viral agent; they are phosphorylated by HSV1-TK and can be radiolabelled for noninvasive imaging.
Wild-type (nontransduced) RG2 cells were studied as a reference control. […] The cells were dislodged from the Petri dishes with a soft scraper, poured into 15 ml conical tubes, centrifuged and the medium aspirated. The tubes were cut to facilitate removing cells; they were blotted, placed in pre-weighed vials, weighed and prepared for counting. Samples were assayed for ^3 H- and ^14 C-radioactivity using a Packard B1600 TriCarb beta spectrometer using dual-channel and external standard splash and quench correction techniques. The medium was also counted before and following incubation. The data was expressed as a harvested cell-to-medium concentration ratio (dpm/g cells.div.dpm/ml medium).
as §1

[4] = system: RG2TK+ and RG2 tumors; assay: Tissue sampling of FIAU- and IUdR-derived radioactivity in i.c. and s.c. RG2TK+ and RG2 tumors; assay type: in vivo, rat; details: 24 h; for Sensitivity* (uptake in RG2TK+ tumor - uptake in RG2 tumor)/(HSV1TK mRNA/S28 RNA IOD in RG2TK+ cells): percent dose per gram
Protocol: Animal preparation and tumor inoculation Two male Fisher 344 rats weighing 250±20 g were anesthetized with a gas mixture consisting of 2% Isoflurane, 70% nitrous oxide and 30% oxygen. A 2% lidocaine gel was applied to the ears and the head was fixed with a stereotaxic device. After midline scalp incision, a burr hole was made through the skull 1 mm posterior and 3 mm lateral to the bregma. The tumor cell suspensions were aspirated into a 50 μl gas tight Hamilton syringe (Ga. 25) and attached to a stereotaxic device. The syringe needle was then inserted 6 mm deep into the caudate nucleus and the cell suspension (10^5 cells in 10 μl) was slowly injected over 2 minutes. RG2TK+ cells were injected into the left hemisphere, and RG2 cells were injected into the right hemisphere. Bone wax was applied to cover the skull defect and the scalp was closed with 4.0 silk suture. Subcutaneous inoculations (10^6 cells in 50 μl) were also performed (RG2TK+ cells into the left flank and RG2 cells into the right flank). After the procedure, the animals were marked and placed in standard cages with water and Rodent LabChow #5001 (Purina Mills, Inc.) ad libitum. Comparison of different "marker substrates" for identifying HSV1-TK expression in animals After 10 days of tumor growth, both animals received i.v. injections of [^123 I]-IUdR (400 uCi) and [^14 C]-FIAU (10 uCi). Radioactivity was allowed to clear from the body over 24 hours to reduce tissue background activity, predominantly due to radiolabelled iodide, the major metabolite of [^123 I]-IUdR. [Tjuvajev, J. G., Muraki, A., Ginos, J., Berk, J., Koutcher, J., Ballon, D., Beattie, B., Finn, R., and Biasberg, R., J. Nucl. Med., 34: 1152-62, 1993; Tjuvajev, J. G., Macapinlac, H. A., Daghighian, F., Scott, A. M., ginos, J. Z., Finn, R. D., Kothari, P., Desai, R., Zhang, Z., Beattie, B., Graham, M., Larson, S., and Blasberg, R. G., J. Nucl. Med., 35: 1407-17, 1994] The rats were killed at 24 hours under anesthesia; samples of tumor and adjacent tissue were disected and weighed, blood and plasma were obtained, and radioactivity was measured. Decay corrected ^123 I-radioactivity was assayed in a Packard AutoGamma 5550 Spectrometer; samples were stored in a refrigerator for 1 week to allow for ^123 I decay (>12 half lives) and ^14 C-radioactivity was measured in a Packard B1600 TriCarb beta spectrometer using external standard quench correction. Sample radioactivity was expressed as a percent of administered dose per gram of tissue of per unit volume of fluid.

[5] = log P values published by Xu, et al.; cited from earlier work
[6] = physchem; assay type: physicochemical; details: octanol/water
Source text: It is known that brain capillary permeability for many compounds is related to their octanol/water partition coefficient (P) and molecular weight. [[…]. Med. […] [Dischino, […]., and […]. Nucl. […] […]. Drug transfer across the blood brain barrier. In: Topics in Pharmaceutical Sciences. Ed.: Breimer, D. D., and […]. […] […]., and Rapoport, S. I. In: Handbook of Physiology. The Cardiovascular System. Microcirculation. Bethesda, Md.: Am. Physiol. Soc., sect. 2, Vol. IV, […]. 969-1000, 1984; […]. In: Implications of Blood-Brain Barrier and Its Manipulation. Basic Science Aspects. Ed. by Neuwelt, E., New York: Plenum, Vol. 1, […]. 132-55, 1988] […] [Xu, […]., Knaus, E. E., and Wiebe, L. I. In: Advances in Radiopharmacology. […]., Snowdon, G. M., Boniface, G. R., Univ. of Wollongong Printing Service, Wollongong, Australia, pp. 283-298, 1990] […] […]).

[7] = system: RG2 cells; assay: Ganciclovir sensitivity assay (methyl-[3H]-thymidine accumulation, percent of control); assay type: cell-based; details: Rattus norvegicus; naive RG2 cells; read-out: ganciclovir ED50
Protocol: (§2) Sensitivity to ganciclovir and selection of "high" and "low" sensitivity clones. […] Following one day of growth, the culture medium of RG2TK+ and RG2 cells in Costar™ 96-well plates was replaced with ganciclovir™-containing medium (Cytovene™; Syntax Laboratories, Inc.; Palo Alto, Calif.) in the following concentrations: 3, 1, 0.6, 0.3, 0.1, 0.06, 0.03, 0.01, 0,006, 0.003, 0.001, 0.0006, 0.0003, 0.0001, 0.00006 mg/ml and ganciclovir™-free control media. The ganciclovir™-containing and control incubation media were changed daily. […] Radioactivity measured in each ganciclovir™-containing well was expressed as a percent of control (ganciclovir™-free) activity.

[8] = system: RG2TK+ cells; assay: as above; assay type: cell-based, rat; details: for IC50: Rattus norvegicus, read-out: ganciclovir ED50
Protocol: Transduction of the HSV1-TK gene into RG2 cells. The STK retrovirus was obtained from filtered (0.1 μm) supernatants of gp-STK-A2 producer cell line cultures grown from a 50% confluent monolayer over 24 hours in Dulbecco's high-glucose medium with 10% bovine serum. Transduction of RG2 cells was accomplished by exposing the cell monolayer to the filtrate for 8 hours in the presence of Polybrene™ (8 μg/ml). Following a 24 hour incubation in standard medium, a selection medium containing Geneticin™ disulfate (800 μg/ml) was used to eliminate cells not expressing the neomycin resistance gene. The selection medium was changed daily to remove dead cells. After 7 days, a bulk culture of transduced RG2 cells (RG2TK+) was harvested for further propogation.
as §2

T1 sequence (P0DTH5 whole entry): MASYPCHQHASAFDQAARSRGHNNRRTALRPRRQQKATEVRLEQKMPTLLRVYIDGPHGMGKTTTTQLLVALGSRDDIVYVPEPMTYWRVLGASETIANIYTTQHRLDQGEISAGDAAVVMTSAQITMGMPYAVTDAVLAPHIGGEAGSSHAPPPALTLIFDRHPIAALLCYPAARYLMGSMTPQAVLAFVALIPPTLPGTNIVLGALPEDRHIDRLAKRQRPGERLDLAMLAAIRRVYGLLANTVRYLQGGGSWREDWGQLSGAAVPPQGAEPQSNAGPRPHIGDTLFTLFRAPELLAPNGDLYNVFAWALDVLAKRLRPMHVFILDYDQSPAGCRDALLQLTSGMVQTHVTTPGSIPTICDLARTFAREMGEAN

In the case of O=c1[nH]c(=O)n([C@H]2C[C@H](O)[C@@H](CO)O2)cc1I [IUdR, 5-iodo-2'-deoxy-uridine], the “Selectivity+ Sensitivity*/(substrate/TdR) for RG2” value [1] is reported as 0.002, the “Sensitivity* Δ(substrate/TdR)/Δ(HSV1TK mRNA/S28 RNA IOD)” value [1] is reported as 0.0011 and the “PS*” value ([2]; calculated from measured log P and MW: log(PS)=5.2+log(P·Dm)) is reported as 0.11. For the same compound, the “PS+” value ([2]; calculated from published log P and MW: log(PS)=5.2+log(P·Dm)) was 0.14, the “Selectivity+ Sensitivity*/(substrate/TdR) for RG2” value [3] was 0.006 and the “Sensitivity* Δ(substrate/TdR)/Δ(HSV1TK mRNA/S28 RNA IOD)” value [3] was 0.0029. The “accumulation in bulk RG2TK+ cells relative to wild-type RG2 cells” value [3] was 1.2 fold, the “Selectivity+ Sensitivity*/(uptake in RG2 tumor)” value ([4]; RG2TK+/RG2 i.c. tumors) was 0.009 and the “Sensitivity* (uptake in RG2TK+ tumor - uptake in RG2 tumor)/(HSV1TK mRNA/S28 RNA IOD in RG2TK+ cells)” value ([4]; RG2TK+/RG2 i.c. tumors) was 0.0001. For the same compound, the “Selectivity+ Sensitivity*/(uptake in RG2 tumor)” value ([4]; RG2TK+/RG2 s.c. tumors) was 0.020, the “Sensitivity* (uptake in RG2TK+ tumor - uptake in RG2 tumor)/(HSV1TK mRNA/S28 RNA IOD in RG2TK+ cells)” value ([4]; RG2TK+/RG2 s.c. tumors) was 0.0007 and the “Log P+” value [5] was -0.76. It also gave a logP [6] of -0.089.
With Nc1nc2c(ncn2COC(CO)CO)c(=O)[nH]1 [ganciclovir, 9-(1,3-dihydroxy-2-propoxymethyl)-guanine] the “Selectivity+ Sensitivity*/(substrate/TdR) for RG2” value [3] was 0.143, the “Sensitivity* Δ(substrate/TdR)/Δ(HSV1TK mRNA/S28 RNA IOD)” value [3] was 0.0004 and the “accumulation of ganciclovir by RG2TK+ cells compared to that of FIAU” value ([3]; RG2TK+ cells) was “less than 5%”. For the same compound, the “accumulation of ganciclovir by RG2TK+ cells compared to that of IUdR” value ([3]; RG2TK+ cells) was < 3%, the “accumulation in bulk RG2TK+ cells relative to wild-type RG2 cells” value [3] was 5.6 fold and the IC50 [7] was 200 µg/mL (≈ 784 µM). The “fold more sensitive to ganciclovir compared to bulk RG2TK+ cells” value ([8]; "high" sensitivity RG2TK+ clones (clone #16) vs bulk RG2TK+) was 5 fold, the “fold less sensitive to ganciclovir compared to bulk RG2TK+ cells” value ([8]; "low" sensitivity RG2TK+ clones vs bulk RG2TK+) was “roughly 30 fold” and the IC50 ([8]; "high-sensitivity" RG2TK+ clone #16) was ~0.2 µg/mL (≈ 0.784 µM). For the same compound, the IC50 ([8]; "low-sensitivity" RG2TK+ clone #32) was ~30 µg/mL (≈ 118 µM), the IC50 ([8]; bulk culture of transduced RG2TK+ cells) was 1 µg/mL (≈ 3.92 µM) and the “fold more sensitive to ganciclovir than RG2 cells” value ([8]; bulk RG2TK+ cells vs wild-type RG2 cells) was “approximately 200 fold”. The “fold more sensitive to ganciclovir than wild-type RG2 cells” value ([8]; high-sensitivity RG2TK+ clone #16 vs wild-type RG2) was “approximately 1000 fold”.
